Laboratory results: US20250188094A1, “PYRAZOLE MEMBRANE-ASSOCIATED TYROSINE-AND THREONINE-SPECIFIC CDC2-INHIBITORY KINASE (PKMYT1) INHIBITORS AND USES THEREOF” (Insilico Medicine IP Limited, priority 2022, published 2025)

How the values were obtained:
PKMYT1 = PKMYT1 (Homo sapiens (Human), UniProt Q99640); assay: PKMYT1 HTRF Assay; assay type: binding; conditions: Tracer 178, GST-Tb, read-out: MYT1 HTRF IC50
Experimental: Example A: PKMYT1 HTRF Assay
Compound serial dilution was performed by Echo, and the final concentrations vary from 10 μM to 0.5 nM. This was filled by the addition of 5 μL/well of Enzyme solution to the assay plate containing the compound. The plate was centrifuged at 1000 rpm for 1 minute, and incubate 15 minutes at 25° C. Then 5 μL/well of tracer solution (Tracer 178) was added to initiate the reaction, and incubate for 60 minutes at 25° C. Next 5 μL GST-Tb was added into the assay plate, the plate was centrifuged at 1000 rpm for 1 minute, and incubate for 15 minutes at 25° C. The assay plate was read on Envision.

WEE1 = WEE1 (Homo sapiens (Human), UniProt P30291); assay: WEE1 ADP-Glo Assay; assay type: biochemical; conditions: luminescence
Experimental: Example B: WEE1 ADP-Glo Assay
Compound serial dilution is performed by Echo, and the final concentrations vary from 10 μM to 0.5 nM. This was filled by the addition of 5 μL/well of Enzyme solution to the assay plate containing the compound. The plate was centrifuged at 1000 rpm for 1 minute, and incubate 15 minutes at 25° C. Then 5 μL/well of substrate solution was added to initiate the reaction, and incubate for 60 minutes at 25° C. Next 10 μL kinase detection reagent was added into the assay plate, the plate was centrifuged at 1000 rpm for 1 minute, and incubate for 60 minutes at 25° C. The assay plate was read on Envision for US LUM as RLU.

Chain of WEE1 (P30291 whole entry, species assumed): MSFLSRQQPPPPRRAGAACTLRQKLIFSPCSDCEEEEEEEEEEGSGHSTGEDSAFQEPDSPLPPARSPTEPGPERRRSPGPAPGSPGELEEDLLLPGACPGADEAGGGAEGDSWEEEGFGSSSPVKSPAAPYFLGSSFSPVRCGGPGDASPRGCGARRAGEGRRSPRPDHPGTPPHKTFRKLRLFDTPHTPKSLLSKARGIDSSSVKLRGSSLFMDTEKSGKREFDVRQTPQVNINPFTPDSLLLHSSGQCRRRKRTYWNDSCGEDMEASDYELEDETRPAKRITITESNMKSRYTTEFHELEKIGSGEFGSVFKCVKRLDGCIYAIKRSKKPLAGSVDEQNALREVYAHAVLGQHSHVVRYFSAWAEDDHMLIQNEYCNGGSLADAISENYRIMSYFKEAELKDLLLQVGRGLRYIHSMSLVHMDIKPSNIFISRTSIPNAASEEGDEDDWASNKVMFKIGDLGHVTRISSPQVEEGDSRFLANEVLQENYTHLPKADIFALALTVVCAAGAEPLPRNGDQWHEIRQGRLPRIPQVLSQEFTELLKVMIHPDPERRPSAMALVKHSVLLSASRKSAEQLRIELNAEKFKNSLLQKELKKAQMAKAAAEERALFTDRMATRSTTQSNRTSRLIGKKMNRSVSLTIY
Chain of PKMYT1 (Q99640 whole entry, species assumed): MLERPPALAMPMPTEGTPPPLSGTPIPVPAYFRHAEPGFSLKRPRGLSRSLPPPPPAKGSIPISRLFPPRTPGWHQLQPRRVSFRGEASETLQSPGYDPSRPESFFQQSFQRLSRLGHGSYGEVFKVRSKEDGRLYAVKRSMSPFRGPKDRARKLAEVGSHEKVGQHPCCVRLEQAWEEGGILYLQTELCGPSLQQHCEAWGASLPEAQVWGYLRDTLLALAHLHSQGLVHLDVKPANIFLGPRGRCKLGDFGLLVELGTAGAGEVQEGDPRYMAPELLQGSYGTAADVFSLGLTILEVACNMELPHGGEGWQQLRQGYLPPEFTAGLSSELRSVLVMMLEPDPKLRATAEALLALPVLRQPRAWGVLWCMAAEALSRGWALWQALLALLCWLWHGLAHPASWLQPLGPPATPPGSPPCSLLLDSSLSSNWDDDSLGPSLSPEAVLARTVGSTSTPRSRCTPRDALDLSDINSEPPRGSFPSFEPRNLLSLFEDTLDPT

| Structure (SMILES) | IC50 (PKMYT1) [nM] | IC50 (WEE1) [nM] |
| --- | --- | --- |
| Cc1ccc(O)c(C)c1-n1nc(-c2nccs2)c(C(N)=O)c1N [Example 1, 5-amino-1-(3-hydroxy-2,6-dimethylphenyl)-3-(thiazol-2-yl)-1H-pyrazole-4-carboxamide] | < 10 | 50 to 500 |
| Cc1ccc(O)c(C)c1-n1nc(-c2nccs2)c(C(N)=O)c1N [Example 2, 5-amino-1-(3-hydroxy-2,6-dimethylphenyl)-3-(thiazol-2-yl)-1H-pyrazole-4-carboxamide] |  | 50 to 500 |
| Cc1ccc(O)c(C)c1-n1nc(-c2nc(C(F)(F)F)cs2)c(C(N)=O)c1N [Example 3, 5-amino-1-(3-hydroxy-2,6-dimethylphenyl)-3-(4-(trifluoromethyl)thiazol-2-yl)-1H-pyrazole-4-carboxamide] | < 10 | 50 to 500 |
| Cc1csc(-c2nn(-c3c(C)ccc(O)c3C)c(N)c2C(N)=O)n1 [Example 4, 5-amino-1-(3-hydroxy-2,6-dimethylphenyl)-3-(4-methylthiazol-2-yl)-1H-pyrazole-4-carboxamide] | < 10 |  |
| Cc1cnc(-c2nn(-c3c(C)ccc(O)c3C)c(N)c2C(N)=O)s1 [Example 5, 5-amino-1-(3-hydroxy-2,6-dimethylphenyl)-3-(5-methylthiazol-2-yl)-1H-pyrazole-4-carboxamide] | < 10 |  |
| Cc1c(O)ccc(Cl)c1-n1nc(-c2nccs2)c(C(N)=O)c1N [Example 6, 5-amino-1-(6-chloro-3-hydroxy-2-methylphenyl)-3-(thiazol-2-yl)-1H-pyrazole-4-carboxamide] | < 10 | 50 to 500 |
| Cc1ccc(O)c(C)c1-n1nc(-c2nc3cnccc3s2)c(C(N)=O)c1N [Example 7, 5-amino-1-(3-hydroxy-2,6-dimethylphenyl)-3-(thiazolo[4,5-c]pyridin-2-yl)-1H-pyrazole-4-carboxamide] | 10 to 50 | 500 to 5000 |
| Cc1ccc(O)c(C)c1-n1nc(-c2ccn(CC(C)(C)O)n2)c(C(N)=O)c1N [Example 8, 5-amino-1-(3-hydroxy-2,6-dimethylphenyl)-1′-(2-hydroxy-2-methylpropyl)-1H,1′H-[3,3′-bipyrazole]-4-carboxamide] | 50 to 500 | > 5000 |
| Cc1ccc(O)c(C)c1-n1nc(-c2ccn(C(F)F)n2)c(C(N)=O)c1N [Example 9, 5-amino-1′-(difluoromethyl)-1-(3-hydroxy-2,6-dimethylphenyl)-1H,1′H-[3,3′-bipyrazole]-4-carboxamide] | < 10 | 50 to 500 |
| Cc1ccc(O)c(C)c1-n1nc(-c2ccc(C(F)(F)F)cn2)c(C(N)=O)c1N [Example 10, 5-amino-1-(3-hydroxy-2,6-dimethylphenyl)-3-(5-(trifluoromethyl)pyridin-2-yl)-1H-pyrazole-4-carboxamide] | 10 to 50 | 500 to 5000 |
| Cc1ccc(O)c(C)c1-n1nc(-c2ncc3n2CCCC3)c(C(N)=O)c1N [Example 11, 5-amino-1-(3-hydroxy-2,6-dimethylphenyl)-3-(5,6,7,8-tetrahydroimidazo[1,5-a]pyridin-3-yl)-1H-pyrazole-4-carboxamide] | 50 to 500 |  |
